According to patent US20150204850A1, “PRODUCTION OF BETA-CELLS” (Max-Planck-Gesellschaft zur Förderung der. Wissenschaften …, priority 2009, published 2015):
Marks after values point to notes of the source that are not given here.

Columns and labels:
β-cells = assay: STZ-mediated diabetes induction (β-cell depletion); format: in vivo, mouse; details: mice, STZ 200 mg/kg intraperitoneally, single dose
Source text: We reasoned that such cells might be capable of replacing lost β-cells in diabetic mice. […] A higher mortality rate was found among animals older than 4 weeks, as compared to younger mice. It should be noticed that these animals were already hyperglycemic and weakened prior to STZ injection due to a combined insulin insensitivity and β-cell failure to optimally respond to a glucose challenge (FIG. 24). […] Ten days post-injection, only few insulin-producing cells were detected (FIG. 7F-G). […]
We reasoned that the continuous β-cell neogenesis observed in double-transgenic animals might be able to rescue experimentally-induced diabetes. Therefore, the function of the newly formed β-cells was assessed in diabetic mice with more than 95% β-cell loss following STZ treatment. […] Also under these conditions, clusters of glucagon^+ cells were detected at one pole of the islets, adjacent to duct structures, such cells subsequently adopting a β-cell phenotype.
To assess the effects of glucagon on islet size, mice were injected intraperitoneally twice daily (every 12h) with 5 μg of glucagon and sacrificed after 3 weeks of treatment. […] Lastly, BrdU was injected intraperitoneally (200 μl of 100 μl/ml) and was detected by immunohistochemistry (Invitrogen).

POE::Glucre β-cells = assay: Arginine and liraglutide tolerance tests; format: in vivo, mouse; details: 10-week old POE::Glucre; arginine 5 mg intravenously; lower than in younger animals
POE::Glucre animals = assay: Insulin challenge (overall responsiveness to insulin); format: in vivo, mouse; details: older POE::Glucre animals; Actrapid insulin 0.75 mU/g subcutaneously
Method: Note that 600 mg of glucose per dl of blood correspond to the maximal value detectable by our glucose monitoring system. […] However, due to the experimental conditions used, we noticed a disaggregating of the islets (Table 7) and therefore turned to an in vivo approach: (C) To determine the overall responsiveness to insulin, an insulin challenge was performed in animals of the indicated genotypes and ages. […] (D-F) Aiming to also assay β-cell function, we treated POE::Glucre animals of the indicated genotypes and ages with two insulin secretagogues, arginine and liraglutide (a long-acting GLP-1 analog—Novo Nordisk—Denmark).
Animals of the indicated genotypes were injected subcutaneously with Actrapid insulin (0.75 mU/g—Novo Nordisk—Denmark), intravenously with arginine (5 mg—Sigma) or subcutaneously with liraglutide (200 micrograms per kg—Novo Nordisk—Denmark). Following insulin challenge, blood glucose levels were measured as described in the main manuscript. Next to arginine challenge, at each time point, one animal per genotype was sacrificed immediately for serum insulin level determination using RIA (Linco). Lastly, in the case of liraglutide, the latter was injected 30 min prior to glucose challenge. At each time point, three animals per genotype were sacrificed immediately for serum glucose and insulin level determination.

POE::Glucre pancreata [1] = assay: Real time RT-PCR of selected transcripts in pancreata of POE::Glucre mice supplemented with glucagon; format: in vivo, mouse; details: 6 week old POE::Glucre + glucagon for 3 weeks; WT/POE pancreata set at 100%
Method: (§1) To assess the effects of glucagon on islet size, mice were injected intraperitoneally twice daily (every 12h) with 5 μg of glucagon and sacrificed after 3 weeks of treatment. For STZ-mediated diabetes induction, a freshly prepared 50 mg/ml solution in 0.1 mol/l sodium citrate, pH 4.5 was injected intraperitoneally (200 mg/kg). Lentivirus production and injection were performed as described previously (Xu et al., 2008). Lastly, BrdU was injected intraperitoneally (200 μl of 100 μl/ml) and was detected by immunohistochemistry (Invitrogen).
RNA isolation (RNAeasy, Qiagen) and cDNA synthesis (Supercript choice system, Invitrogen) were performed according to the manufacturer's instructions. cDNA synthesis for analyses aiming to detect Pax4 transcripts was performed using a mixture of eight Pax4-derived (and β-actin-derived) antisense oligonucleotides instead of the provided oligo-dT primers (FIG. 13B).
Quantitative RT-PCR were carried out using the QuantiTect SYBR Green RT-PCR Kit (Qiagen) and validated primers (Qiagen) according to the manufacturer's instructions. The PCR reactions and detection were performed on a Mastercycler® ep realplex cycler using GAPDH and HPRT1 as internal controls for normalization purposes.
The expression of the indicated genes was assayed in pancreatic tissues of POE::Glucre, POE::Glucre supplemented with glucagon, and glucagon-receptor mutant (GluR-KO) mice using age-matched tissues of WT and POE pancreata as reference (values set at 100%). POE::Glucre, but also GluR-KO pancreata display increased contents of Ngn3 and Reg3b transcripts. Additionally, an augmentation in β-cell-specific transcripts is outlined in POE::Glucre, whereas the expression of the α-cell marker genes is reduced Importantly, concomitantly with a significant decrease in Ngn3 and Reg3b transcript contents, a reduction in insulin- and glucagon-producing cell numbers (and associated marker genes) is evidenced in POE::Glucre animals supplemented with glucagon. All values are statistically significant (P<0.05, n>2) versus POE/WT.

POE::Glucre pancreata [2] = assay: Immunohistochemical cell counts and islet size in pancreata of mice supplemented with glucagon; format: in vivo, mouse
Method: We therefore hypothesized that the latter might be driven by the hypoglucagonemia resulting from the α- to β-cell conversion. To test this theory, we injected 3-week-old POE::Pdx1Cre, POE::Glucre, POE::Pax6cre, and control animals twice daily with glucagon during three weeks.
as §1
Tissues were fixed in 4% PFA overnight at 4° C., embedded in paraffin and 8-μm sections applied to slides. These sections were assayed as described previously (Collombat et al. 2003). In order to perform co-immunofluorescence, the GFP signal was bleached when necessary, as described (Collombat et al., 2007). The primary antibodies used were the following: mouse monoclonal anti-insulin, anti-glucagon ( 1/1000 —Sigma), anti-Ngn3 ( 1/2000—1F25A1B3, BCBC Antibody Core), anti-c-Myc ( 1/100 —Abcam); guinea pig anti-insulin, anti-glucagon ( 1/1000—Sigma); rabbit anti-somatostatin ( 1/600—Dako), anti-PP ( 1/200—Dako), anti-Nkx6.1 ( 1/3000), anti-Nkx2.2 ( 1/1000—kindly provided by T. Jessell), anti-Pax6 ( 1/500 Chemicon), anti-Pax4 ( 1/500), and anti-Arx ( 1/1000); chicken anti-β-galactosidase ( 1/500 Biozol); goat anti-Ngn3 ( 1/1000—kindly provided by M. Sander). The secondary antibodies ( 1/1000—Molecular Probes) used were: 594-alexa anti-mouse; 488-alexa anti-mouse; 594-alexa anti-rabbit; 488-alexa anti-rabbit; 594-alexa anti-guinea pig; 488-alexa anti-guinea pig. Pictures were processed using confocal microscopy. For quantification purpose, stained cells were counted manually on every tenth section and the count reported to the pancreatic area estimated in silico.
The counts in cells positive for the indicated genes are reported per square centimetre of pancreatic tissues of POE::Glucre, POE::Glucre supplemented with glucagon, and glucagon-receptor mutant (GluR-KO) mice using age-matched tissues of WT/POE pancreata as reference. It is worth noticing that, in animals ectopically expressing Pax4 in glucagon expression domains or in GluR-KO mice, Ngn3-producing cells reemerge (note for the latter that due to the bias introduced by the high background, this count should be considered as indicative). […] In the latter case, a concomitant decrease in BrdU-labelled proliferating cell numbers is highlighted (BrdU provided at 5 weeks of age, examination a week later). (n>2, **P<0.01, *P<0.05 using the POE/WT genotype as reference; ^##P<0.01, ^#P<0.05 using the POE::Glucre genotype as reference).

isolated islets = assay: Perifusion analysis of isolated islets (insulin release); format: cell-based, mouse; details: 20 mM glucose + glucagon
Source text: […] (2003). […] Obviously, a decrease in digestion time/collagenase concentrations would not have permitted proper islet isolation. We anyway perifused the islets and observed no difference in islet function of younger animals for all the genotypes analyzed. However, in older counterparts, we did detect a decrease in the glucose-stimulated insulin release, albeit not significant. It should be noticed that such a lack of significance might be attributed to the loss of oversized islets induced by experimental conditions.

[3] = 6 week old POE::Glucre + glucagon

CN(N=O)C(=O)N[C@H]1C(O)O[C@H](CO)[C@@H](O)[C@@H]1O (mixture of isomers) [STZ, streptozotocin]
β-cell loss following STZ treatment (β-cells): more than 95%

N=C(N)NCCC[C@H](N)C(=O)O [arginine]
Insulin secretion after arginine challenge (POE::Glucre β-cells): able to elicit an insulin secretion

insulin: Actrapid insulin, Novo Nordisk, Denmark
Glycemia after insulin challenge (POE::Glucre animals): did not observe any significant modification of the glycemia

glucagon
Arx transcript (real time RT-PCR) (POE::Glucre pancreata [1]): 15 ± 10%
Glucagon transcript (real time RT-PCR) (POE::Glucre pancreata [1]): 18 ± 9%
Insulin transcript (real time RT-PCR) (POE::Glucre pancreata [1]): 285 ± 52%
Ngn3 transcript (real time RT-PCR) (POE::Glucre pancreata [1]): 475 ± 81%
Nkx6.1 transcript (real time RT-PCR) (POE::Glucre pancreata [1]): 183 ± 20%
Pax4 transcript (real time RT-PCR) (POE::Glucre pancreata [1]): 555 ± 91%
Pdx1 transcript (real time RT-PCR) (POE::Glucre pancreata [1]): 279 ± 62%
Reg3b transcript (real time RT-PCR) (POE::Glucre pancreata [1]): 434 ± 63%
Islet size (POE::Glucre pancreata [2]; 3-week-old POE::Pdx1Cre, POE::Glucre, POE::Pax6cre mice injected twice daily with glucagon during three weeks, vs controls): significant decrease in islet size
Glucagon-positive cell count (POE::Glucre pancreata [2]; [3]): 6 ± 4**^# per square centimetre
Insulin-positive cell count (POE::Glucre pancreata [2]; [3]): 394 ± 132**^## per square centimetre
BrdU (1 week) labelled cell count (POE::Glucre pancreata [2]; 6 week old POE::Glucre + glucagon, BrdU at 5 weeks of age, examination a week later): 28 ± 7^# per square centimetre
Ngn3-positive cell count (POE::Glucre pancreata [2]; 6 week old POE::Glucre + glucagon, count indicative (high background)): 38 ± 11^# per square centimetre
% of insulin released reported to the total insulin cell content/2 h (isolated islets; 3-week old Control islets): 8.9 ± 1.1%
% of insulin released reported to the total insulin cell content/2 h (isolated islets; 3-week old POE::Glucre islets): 10.6%
% of insulin released reported to the total insulin cell content/2 h (isolated islets; 12-week old Control islets): 9.5 ± 0.8%
% of insulin released reported to the total insulin cell content/2 h (isolated islets; 12-week old POE::Glucre islets): 6.6 ± 1.2%
